Measurements published in patent US11414425B2 (priority 2018, dated 2022).
pKi: −log10 of the molar value.

Legend:
[1] = target: α5β3γ2 GABAA receptors (Homo sapiens, UniProt P18507+P31644); test: [3H]Ro15-1788 binding, membranes of Ltk cells stably expressing α5β3γ2 GABAA receptors; settings: ranges; inhibition of [3H]Ro15-1788 binding
[2] = target: T1, GABAA receptors (α5β2γ2) (Homo sapiens, UniProt P18507+P31644); test: Positive allosteric modulator activity: potentiation of EC20 GABA current in oocytes; assay type: cell-based; settings: read-out: GABA α5 Functional Data (potentiation of EC20 GABA); @ 100 nM; ranges
T1 construct: expressed in transfected cells
T1 sequence (P31644 32-462): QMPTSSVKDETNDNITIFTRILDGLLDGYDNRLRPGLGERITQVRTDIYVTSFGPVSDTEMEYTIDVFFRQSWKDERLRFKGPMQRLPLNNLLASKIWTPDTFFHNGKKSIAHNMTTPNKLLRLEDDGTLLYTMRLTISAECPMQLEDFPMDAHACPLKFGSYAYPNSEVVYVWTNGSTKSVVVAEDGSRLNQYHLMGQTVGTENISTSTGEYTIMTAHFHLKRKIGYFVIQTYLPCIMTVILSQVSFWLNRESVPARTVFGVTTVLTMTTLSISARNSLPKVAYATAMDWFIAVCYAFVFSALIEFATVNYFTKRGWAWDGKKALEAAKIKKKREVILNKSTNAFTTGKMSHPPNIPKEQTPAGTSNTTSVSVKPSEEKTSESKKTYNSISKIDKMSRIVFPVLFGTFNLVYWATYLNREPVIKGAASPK
T1 sequence (P47870 25-512, further chain): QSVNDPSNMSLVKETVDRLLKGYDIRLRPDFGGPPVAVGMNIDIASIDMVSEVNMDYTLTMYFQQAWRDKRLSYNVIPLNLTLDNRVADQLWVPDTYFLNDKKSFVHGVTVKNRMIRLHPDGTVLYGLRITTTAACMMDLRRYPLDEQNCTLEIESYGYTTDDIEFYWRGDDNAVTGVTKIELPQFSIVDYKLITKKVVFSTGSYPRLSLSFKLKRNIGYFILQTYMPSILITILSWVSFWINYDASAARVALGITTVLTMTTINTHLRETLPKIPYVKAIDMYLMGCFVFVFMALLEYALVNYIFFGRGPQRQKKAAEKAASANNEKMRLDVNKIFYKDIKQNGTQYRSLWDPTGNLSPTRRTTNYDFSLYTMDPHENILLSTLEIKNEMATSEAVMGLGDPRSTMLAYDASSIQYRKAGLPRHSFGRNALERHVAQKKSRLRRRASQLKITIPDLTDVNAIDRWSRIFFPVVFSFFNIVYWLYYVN
T1 sequence (P18507 40-475): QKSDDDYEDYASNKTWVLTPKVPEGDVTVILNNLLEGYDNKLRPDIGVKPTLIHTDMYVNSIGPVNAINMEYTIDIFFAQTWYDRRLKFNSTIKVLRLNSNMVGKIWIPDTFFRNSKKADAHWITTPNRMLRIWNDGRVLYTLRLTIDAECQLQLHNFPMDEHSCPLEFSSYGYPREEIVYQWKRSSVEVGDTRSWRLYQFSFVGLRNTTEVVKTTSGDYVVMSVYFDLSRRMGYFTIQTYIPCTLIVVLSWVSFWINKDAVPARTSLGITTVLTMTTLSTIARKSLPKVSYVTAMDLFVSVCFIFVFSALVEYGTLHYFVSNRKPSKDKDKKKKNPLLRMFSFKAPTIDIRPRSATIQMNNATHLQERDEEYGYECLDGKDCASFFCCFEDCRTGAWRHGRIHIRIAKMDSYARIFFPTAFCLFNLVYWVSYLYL
Protocol: On day 1, 1 ng/32 nL of GABAA α5β2γ2 cDNA was injected into one oocyte. Test starts on day 2. The cDNA injected to the oocytes was a mix of alpha, beta and gamma, their ratio is 1:1:10 (by weight) and the total weight of the mixed 3 subunits to be injected in one oocyte was 1 ng in 32 nl volume. The injected oocytes can also be tested on day 3. In such case, the cDNA amount injected to the oocytes should be reduced by 20%.
1). 8 oocytes were placed in 8 chambers of OpusXpress and superfused with Modified Barth's Saline (MBS) at 3 mL/min. Glass electrodes back-filled with 3M KCl (0.5-3 megaohms) were used.
1). New oocytes were used to run new test.
3). […] Oocytes were washed with MBS for 5-10 min.
4). […] Itest was divided by IGABA to obtain potentiation (%).
Test Compounds at Multiple Doses • 1). Repeat the above steps 1), 2) and 3) in the control test. • 2). […] Divide Itest by IGABA to obtain potentiation (%). • 3). Discard all tested oocytes, new oocytes were used and the above steps 1) and 2) were repeated to test second concentration of the same compound. Each oocyte was used for only one concentration test for a single test compound. The steps were repeated for other test compounds.

α5β3γ2 GABAA receptors, sequence (P31644 32-462): as the sequence (P31644 32-462) above
α5β3γ2 GABAA receptors, sequence (P28472 26-473 partner): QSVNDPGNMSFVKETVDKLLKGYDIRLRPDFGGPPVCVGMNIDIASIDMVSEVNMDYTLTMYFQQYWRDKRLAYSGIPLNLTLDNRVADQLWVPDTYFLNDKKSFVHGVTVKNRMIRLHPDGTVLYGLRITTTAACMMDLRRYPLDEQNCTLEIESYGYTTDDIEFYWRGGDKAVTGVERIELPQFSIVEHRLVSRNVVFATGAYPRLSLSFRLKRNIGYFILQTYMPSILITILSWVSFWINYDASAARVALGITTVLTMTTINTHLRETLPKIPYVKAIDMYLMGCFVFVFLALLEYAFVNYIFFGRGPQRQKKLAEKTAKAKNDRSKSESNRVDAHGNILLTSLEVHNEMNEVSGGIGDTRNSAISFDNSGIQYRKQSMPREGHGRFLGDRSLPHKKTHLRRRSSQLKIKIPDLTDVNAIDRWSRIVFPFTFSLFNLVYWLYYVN
α5β3γ2 GABAA receptors, sequence (P18507 40-475): as the sequence (P18507 40-475) above

Row | SMILES | pKi [1] | activation at 0.1 µM [2] [%]
1 | COCc1nnc2n1Cc1c(C#Cc3cnc(C)n3C)ncn1-c1ccc(OC)cc1-2 [Compound 672] | > 7.00 | > 50
2 | COCc1nnc2n1Cc1c(C#Cc3ncc(OC)cn3)ncn1-c1ccc(Cl)cc1-2 [Compound 574] | > 7.00 | > 50
3 | COc1ccc([C@@H]2COC(c3ncn4c3Cc3cnnn3-c3cc(OC)ccc3-4)=N2)cc1 [Compound 520] | > 7.00 | 5 to 20
4 | COCc1nnc2n1Cc1c(C#Cc3cncc(OC)c3)ncn1-c1ccc(OC)cc1-2 [Compound 566] | > 7.00 | 5 to 20
5 | COCc1nnc2n1Cc1c(C#Cc3cc(C)cnn3)ncn1-c1ccc(Cl)cc1-2 [Compound 609] | 6.00 to 7.00 | 20 to 50
6 | COc1ccc2c(c1)-n1nncc1Cc1c(C3=N[C@H](c4ccc(Cl)cc4)CO3)ncn1-2 [Compound 517] | > 7.00 | 20 to 50
7 | COc1ccc2c(c1)-n1nncc1Cc1c(C#Cc3ccc(OC)nc3)ncn1-2 [Compound 530] | > 7.00 | 5 to 20
8 | COCc1nnc2n1Cc1c(C#Cc3ccnc(OC)c3)ncn1-c1ccc(OC)cc1-2 [Compound 567] | > 7.00 | 5 to 20
9 | Clc1cccc([C@@H]2COC(c3ncn4c3Cc3cnnn3-c3cc(Cl)ccc3-4)=N2)c1 [Compound 515] | > 7.00 | 5 to 20
10 | COc1ccc2c(c1)-n1nncc1Cc1c(C3=NCC(c4ccncc4)O3)ncn1-2 (stereo not shown) [Compound 630] | > 7.00 | 20 to 50
11 | C#Cc1ccc2c(c1)-c1nnc(COC)n1Cc1c(C3=N[C@@H](c4ccccc4)CO3)ncn1-2 [Compound 301] | > 7.00 | 5 to 20
12 | COc1ccc2c(c1)-n1nncc1Cc1c(C#Cc3cncc(C)c3)ncn1-2 [Compound 617] | > 7.00 | 5 to 20
13 | COCc1nnc2n1Cc1c(C#Cc3ccc(OC)nc3)ncn1-c1ccc(Cl)cc1-2 [Compound 527] | > 7.00 | 20 to 50
14 | COc1ccc2c(c1)-n1nncc1Cc1c(C3=N[C@H](c4ccc(F)cc4)CO3)ncn1-2 [Compound 519] | > 7.00 | 20 to 50
15 | C[C@]1(c2ccccc2)COC(c2ncn3c2Cc2cnnn2-c2cc(Cl)ccc2-3)=N1 [Compound 623] | > 7.00 | 5 to 20
16 | COCc1nnc2n1Cc1c(C#Cc3ccn4ccnc4c3)ncn1-c1ccc(Cl)cc1-2 [Compound 679] | > 7.00 | > 50
17 | COc1ccc2c(c1)-n1nncc1Cc1c(C#Cc3cnc(C)[nH]3)ncn1-2 [Compound 668] | > 7.00 | > 50
18 | Cc1ncc(C#Cc2ncn3c2Cc2cnnn2-c2cc(Cl)ccc2-3)n1C [Compound 666] | > 7.00 | 20 to 50
19 | Clc1ccc2c(c1)-n1nncc1Cc1c(-c3noc(-c4ccccc4)n3)ncn1-2 [Compound 537] | > 7.00 | 20 to 50
20 | CCc1cncc(C#Cc2ncn3c2Cn2c(COC)nnc2-c2cc(Cl)ccc2-3)c1 [Compound 604] | > 7.00 | > 50
21 | COCc1nnc2n1Cc1c(C#Cc3ccn4ccnc4c3)ncn1-c1ccc(OC)cc1-2 [Compound 675] | > 7.00 | > 50
22 | COCc1nnc2n1Cc1c(C#Cc3ccc(OC)c(C)n3)ncn1-c1ccc(Cl)cc1-2 [Compound 581] | > 7.00 | 20 to 50
23 | COCc1nnc2n1Cc1c(C#Cc3ccc(C(C)C)cc3)ncn1-c1ccc(OC)cc1-2 [Compound 716] | > 7.00 | 5 to 20
24 | Cc1nnc(-c2ncn3c2Cc2cnnn2-c2cc(Cl)ccc2-3)o1 [Compound 508] | > 7.00 | 5 to 20
25 | COc1ccc2c(c1)-n1nncc1Cc1c(C3=N[C@@H](c4ccc(F)cc4)CO3)ncn1-2 [Compound 367] | > 7.00 | 5 to 20

Row | SMILES | pKi [1] | activation at 0.1 µM [2] [%]
26 | FC(F)(F)c1ccc2c(c1)-n1nncc1Cc1c(C3=NC[C@@H](c4ccccc4)O3)ncn1-2 [Compound 624] | > 7.00 | 5 to 20
27 | CC(C)c1noc(-c2ncn3c2Cc2c(Cc4cccc(F)c4)nnn2-c2cc(Cl)ccc2-3)n1 [Compound 481] | > 7.00 | 5 to 20
28 | Cc1noc(-c2ncn3c2Cc2c(Cc4cccc(F)c4)nnn2-c2cc(OC(F)(F)F)ccc2-3)n1 [Compound 485] | > 7.00 | 5 to 20
29 | Cc1nc(-c2ncn3c2Cc2cnnn2-c2cc(Cl)ccc2-3)no1 [Compound 539] | > 7.00 | 5 to 20
30 | COCc1nnc2n1Cc1c(C#Cc3ccnc(OC)c3)ncn1-c1ccc(Cl)cc1-2 [Compound 570] | > 7.00 | 5 to 20
31 | COc1ccc(C#Cc2ncn3c2Cc2cnnn2-c2cc(C(F)(F)F)ccc2-3)cn1 [Compound 553] | > 7.00 | 5 to 20
32 | COCc1nnc2n1Cc1c(C#Cc3ccc(OC(C)C)nc3)ncn1-c1ccc(OC)cc1-2 [Compound 711] | > 7.00 | 5 to 20
33 | COCc1nnc2n1Cc1c(C#Cc3cncc(C)c3)ncn1-c1ccc(Cl)cc1-2 [Compound 558] | > 7.00 | 5 to 20
34 | COCc1nnc2n1Cc1c(C#Cc3cnc(C)[nH]3)ncn1-c1ccc(Cl)cc1-2 [Compound 681] | > 7.00 | > 50
35 | COCc1nnc2n1Cc1c(C#Cc3ccc(OC)cn3)ncn1-c1ccc(Cl)cc1-2 [Compound 528] | > 7.00 | > 50
36 | COCc1nnc2n1Cc1c(C#Cc3ccc(=O)n(C)c3)ncn1-c1ccc(OC)cc1-2 [Compound 676] | > 7.00 | 5 to 20
37 | COCc1nnc2n1Cc1c(C#Cc3cnccn3)ncn1-c1ccc(OC)cc1-2 [Compound 589] | > 7.00 | > 50
38 | Brc1ccc2c(c1)-n1nncc1Cc1c(C3=N[C@H](c4ccccc4)CO3)ncn1-2 [Compound 505] | > 7.00 | 20 to 50
39 | COCc1nnc2n1Cc1c(C#Cc3ccc(=O)n(C)c3)ncn1-c1ccc(Cl)cc1-2 [Compound 677] | > 7.00 | 5 to 20
40 | FC(F)(F)Oc1ccc2c(c1)-n1nncc1Cc1c(-c3ncco3)ncn1-2 [Compound 476] | > 7.00 | 5 to 20
41 | COCc1nnc2n1Cc1c(C#Cc3cnc(C)s3)ncn1-c1ccc(OC)cc1-2 [Compound 597] | > 7.00 | > 50
42 | Fc1ccc(C#Cc2ncn3c2Cc2cnnn2-c2cc(OC(F)F)ccc2-3)cc1 [Compound 500] | > 7.00 | 5 to 20
43 | COc1ccc(C#Cc2ncn3c2Cn2c(COC(F)F)nnc2-c2cc(Cl)ccc2-3)cn1 [Compound 616] | > 7.00 | 5 to 20
44 | COCc1nnn2c1Cc1c(C3=NC[C@H](c4ccc(Cl)cc4)O3)ncn1-c1ccc(Cl)cc1-2 [Compound 635] | > 7.00 | 5 to 20
45 | COc1ccc2c(c1)-n1nncc1Cc1c(C3=NCC(c4ncccc4OC)O3)ncn1-2 (stereo not shown) [Compound 632] | > 7.00 | 5 to 20
46 | COCc1nnc2n1Cc1c(C#Cc3cnc4occc4c3)ncn1-c1ccc(OC)cc1-2 [Compound 674] | > 7.00 | 5 to 20
47 | COc1ccc2c(c1)-n1nncc1Cc1c(C3=N[C@H](c4cccc(Cl)c4)CO3)ncn1-2 [Compound 516] | > 7.00 | 5 to 20
48 | Cc1noc(-c2ncn3c2Cc2cnnn2-c2cc(Br)ccc2-3)n1 [Compound 473] | > 7.00 | 5 to 20
49 | COCc1nnc2n1Cc1c(C3=NC[C@@H](c4ccc(Cl)cc4)O3)ncn1-c1ccc(Cl)cc1-2 [Compound 717] | > 7.00 | > 50
50 | CC(C)c1nc(-c2ncn3c2Cc2cnnn2-c2cc(Cl)ccc2-3)no1 [Compound 538] | > 7.00 | 20 to 50
